According to patent publication US20260166159A1, “KRAS G12D DEGRADATION AGENT, AND PREPARATION METHOD AND USE THEREFOR” (LEADINGTAC PHARMACEUTICAL (SHAOXING) CO., LTD., priority 2022, published 2026):
pIC50: −log10 of the molar value.

Key:
KRAS-G12D [1] = target: T1, KRAS-G12D (Homo sapiens, UniProt P01116, G12D); assay: KRAS-G12D degradation assay (Western Blot), AsPc-1 cells; format: cell-based; conditions: for DC50: 24 h; for Dmax: ASPC1, 24 h
T1 construct: endogenous in cells; host or cells: A-427 (ATCC), AGS, AsPc-1, Panc 04.03
T1 sequence (P01116 1-188 isoform P01116-2 G12D): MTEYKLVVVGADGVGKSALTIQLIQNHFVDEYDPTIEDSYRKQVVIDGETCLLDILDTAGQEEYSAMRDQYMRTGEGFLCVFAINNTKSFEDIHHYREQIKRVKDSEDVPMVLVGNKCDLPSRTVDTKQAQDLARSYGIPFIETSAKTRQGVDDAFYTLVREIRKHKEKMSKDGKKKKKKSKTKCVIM
Protocol: The degradation effects of the compounds on KRAS-G12D were investigated on KRAS G12D mutant human lung cancer cell A-427 (ATCC), KRAS G12D mutant human gastric cancer cell AGS, KRAS G12D mutant human metastatic pancreatic cancer cell AsPc-1, and KRAS G12D mutant human pancreatic adenocarcinoma cell Panc 04.03. The specific procedures were as follows: 0.95 mL of cells were seeded into each well of a 24-well cell culture plate to achieve a cell density of 5×10^5 cells/well; and the cell plate was incubated in an incubator at 37° C. with 5% CO2 overnight. Then 50 μL of the compound solution after dilution was added to each of the wells with the corresponding cells, so that the final concentration of the compound was in a range of 0.03-3000 nM. The final concentration of DMSO was 0.25%. After the compounds were added, the cell plate was incubated in the incubator at 37° C. with 5% CO2 for 24 h. The culture medium in the 24-well cell culture plate was removed, and the plate was washed twice with 1×PBS (KeyGEN). 120 μL of RIPA (strong) lysis buffer (Beyotime) supplemented with 1 mM phenylmethylsulfonyl fluoride, a protease inhibitor mixture (Beyotime), and a protease phosphatase inhibitor mixture (Beyotime) was added to lyse adherent A-427 cells at the bottom of the cell culture plate. After the plate was left to stand on ice for 30 min, the protein lysate in each well was transferred to a 1.5 mL centrifuge tube and centrifuged at 15000 g for 20 min at 4° C. The cell lysate supernatants after centrifugation were cryopreserved in a refrigerator at −80° C. for later use.
After the samples of the cell lysate supernatants that had been prepared were thawed from the refrigerator at −80° C., the total protein concentrations of the cell lysates were determined using a BCA protein quantification kit (Tiangen). The total protein concentrations of the samples were then adjusted to 0.5 μg/μL with PBS and 5×SDS-PAGE protein loading buffer (Beyotime), and the samples were incubated in a water bath at 100° C. for 15 min. The samples were then incubated in an ice bath for 5 min and centrifuged at 14000 g for 1 min at 4° C., and the supernatants were mixed well as loading samples for the Western Blot assay. The samples were loaded into wells of a 10% precast gel (KeyGEN) with a loading volume of 10 μL (total protein: 5 μg), a sufficient Tris-MOPS-SDS running buffer (Adamas) was added, and then electrophoresis was performed at a constant voltage of 120 V for 55 min. After the electrophoresis, the proteins on the gel were transferred to PVDF membranes at a constant current of 250 mA for 55 min. After the membrane transfer, the PVDF membranes were incubated in 1× Quick Block blocking buffer (Beyotime) at room temperature for 30 min. After the blocking, the PVDF membranes were separately incubated at 4° C. overnight with the KRAS antibody (Abcam) diluted in a ratio of 1:1000 and the […] antibody (Abcam) diluted in a ratio of 1:2000 in 5% BSA as the diluent, and then washed with 1×TBST buffer (2.4 g of Tris, 8.8 g of NaCl, 1.5 mL of Tween 20, with pH adjusted to 7.4, with the volume brought to 1 L) 3 times for 10 min/time. The membranes were incubated with a secondary antibody (Abcam) diluted in 5% BSA at room temperature for 2 h, and then washed with 1×TBST buffer 3 times for 10 min/time. Finally, the membranes were incubated with Clarity Western ECL Substrate (BIO-RAD) for 5 min for luminescence and color development, and a ChemiScope 6200 Touch chemiluminescence imaging system (Clinx) was used for color development and protein mapping. Gray value analysis of the protein maps was performed using the chemiluminescence analysis software (Clinx). The gray correction value for each sample was calculated using the formula: gray correction value=(gray value of target protein/gray value of corresponding internal reference)×10^3. Then degradation rates were calculated by comparison with the gray correction value of the control group. […]

[2] = test system: KRAS G12D mutant human gastric cancer cell AGS; assay: 3D cell proliferation inhibition assay, AGS; format: cell-based; conditions: 168 h, 7 days, CTG, numeric values
Outline: (§1)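 Cells seeded at 5×10^2 per well in low-adsorption plates with compounds at 10000–0.026 nM final (0.2% DMSO) and grown 7 days at 37 °C, 5% CO2. Viability by CellTiter-Glo luminescence after 60 min at room temperature; inhibition normalized to DMSO and medium-only controls, IC50 from nonlinear log-concentration fit.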

[3] = test system: KRAS G12D mutant human metastatic pancreatic cancer cell AsPc-1; assay: 3D cell proliferation inhibition assay, AsPc-1; format: cell-based; conditions: ASPC1, 168 h, AsPc-1, 7 days, CTG, numeric values
Description: (§2) The inhibitory effects of the compounds on 3D cell proliferation were investigated on KRAS G12D mutant human lung cancer cell A427, KRAS G12D mutant human gastric cancer cell AGS, KRAS G12D mutant human metastatic pancreatic cancer cell AsPc-1, KRAS G12D mutant human pancreatic cancer cell Panc 04.03, KRAS G12D mutant human pancreatic cancer cell HPAC, KRAS G12V mutant human lung squamous cell carcinoma cell SW900, and KRAS WT human gastric cancer cell MKN1. The specific procedures were as follows:
(§3) 10 μL of each compound solution diluted in a gradient was added to corresponding wells of a 96-well low-adsorption microplate (PerkinElmer), so that the final concentrations of the test compounds in the reaction system were in a range of 10000-0.026 nM. The final concentration of DMSO was 0.2%. Then 90 µL of cells were correspondingly seeded into each well to achieve a cell density of 5×10^2 cells/well (the cell density of SW900 was 5×10^1 cells/well, and the cell density of MKN1 was 1×10^3 cells/well). In addition to test wells for the test compounds, both a DMSO control well and a medium control well were set, with the DMSO control well containing DMSO and cells and the medium well containing only a medium. After the sample loading, the 96-well low-adsorption microplate was incubated in an incubator at 37° C. with 5% carbon dioxide for 7 days. After 7 days, the microplate was taken out, and 100 μL of CTG reagent (Promega) was added to each well. The plate was incubated at room temperature for 60 min and read on a microplate reader EnVision by the chemiluminescence program. The inhibition rates of the compounds at each concentration were calculated using the formula for the percentage inhibition of cell proliferation: inhibition rate %=(mean value of DMSO control group−single concentration reading value of compound)/(mean value of DMSO control group−mean value of medium control group)×100. Then non-linear curve fittings for logarithmic concentration-inhibition rate were performed by GraphPad Prism 8, and the IC50 values of the compounds were obtained (Table 5).

[4] = test system: KRAS G12D mutant human pancreatic cancer cell HPAC; assay: 3D cell proliferation inhibition assay, HPAC; format: cell-based; conditions: 168 h, 7 days, CTG
Description: as §2, §3

[5] = test system: KRAS G12D mutant human pancreatic cancer cell Panc 04.03; assay: 3D cell proliferation inhibition assay, Panc 04.03; format: cell-based; conditions: 168 h, Panc 04.03, 7 days, CTG, numeric values
Description: as §2, §3

KRAS-G12D [6] = target: T1, KRAS-G12D; assay: KRAS-G12D degradation assay (Western Blot), A-427 cells; format: cell-based; conditions: A427 cells, 24 h, numeric values
Outline: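 Each KRAS G12D mutant line (A-427, AGS, AsPc-1, Panc 04.03) was seeded at 5×10^5 cells/well and treated 24 h at 37 °C with 0.03–3000 nM compound (final DMSO 0.25%). KRAS in lysates was measured by Western blot, normalized to β-actin and compared with controls, giving DC50 and Dmax from curve fits.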

[7] = target: T2, Human KRAS G12D 6His-tagged (Homo sapiens, UniProt P01116, G12D); assay: KRAS-G12D/GTP binding assay (HTRF); conditions: numeric values
T2 construct: purchased PerkinElmer
T2 sequence (P01116 1-188 isoform P01116-2 G12D): as above
Outline: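 HTRF kit format: 6His-tagged KRAS G12D incubated with compound (final 0.02-5000 nM, 0.5% DMSO), anti-6His Eu cryptate antibody and GTP Red reagent for 1 h at 25° C. 665/620 nm ratio versus control gave inhibition rates; IC50 by nonlinear fit.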

[8] = test system: KRAS G12D mutant human lung cancer cell A427; assay: 3D cell proliferation inhibition assay, A427; format: cell-based; conditions: A-427, 168 h, A427, 7 days, CTG, numeric values
Outline: as §1

SMILES: COc1ccc(C(=O)N2CCC3(CCC(CN4CCN(CC5(COc6nc(N7CC8CCC(C7)N8)c7cnc(-c8cc(O)cc(Cl)c8C8CC8)c(F)c7n6)CC5)CC4)CC3)CC2)cc1N1CCC(=O)NC1=O [Example 89]
- DC50 (KRAS-G12D [1]): 0.0947 µM
- Dmax (KRAS-G12D [1]): 69%
- pIC50 [2]: 8.06
- pIC50 [3]: 7.94
- pIC50 [4]: 7.89

SMILES: [2H]C([2H])([2H])c1ccc(C(=O)N2CCC3(CCC(CN4CCN(CC5(COc6nc(N7CC8CCC(C7)N8)c7cnc(-c8cc(O)cc9ccc(F)c(C#C)c89)c(F)c7n6)CC5)CC4)CC3)CC2)cc1N1CCC(=O)NC1=O [Example 103, 1-(5-(9-((4-((1-(((4-(3,8-diazabicyclo[3.2.1]octan-3-yl)-7-(8-ethynyl-7-fluoro-3-hydroxynaphthalen-1-yl)-8-fluoropyrido[4,3-d]pyrimidin-2-yl)oxy)methyl)cyclopropyl)methyl)piperazin-1-yl)methyl)-3-azaspiro[5.5]undecane-3-carbonyl)-2-(methyl-d3)phenyl)dihydropyrimidine-2,4(1H,3H)-dione]
- pIC50 [2]: 8.36
- pIC50 [3]: 8.85
- pIC50 [5]: 7.77
- pIC50 [4]: 8.80

SMILES: [2H]C([2H])(C1CCC2(CC1)CCN(C(=O)c1ccc(C)c(N3CCC(=O)NC3=O)c1)CC2)N1CCN(CC2(COc3nc(N4CC5CCC(C4)N5)c4ccc(-c5cc(O)cc6ccc(F)c(C#C)c56)c(F)c4n3)CC2)CC1 [Example 107, 1-(5-(9-((4-((1-(((4-(3,8-diazabicyclo[3.2.1]octan-3-yl)-7-(8-ethynyl-7-fluoro-3-hydroxynaphthalen-1-yl)-8-fluoroquinazolin-2-yl)oxy)methyl)cyclopropyl)methyl)piperazin-1-yl)methyl-d2)-3-azaspiro[5.5]undecane-3-carbonyl)-2-methylphenyl)dihydropyrimidine-2,4(1H,3H)-dione]
- DC50 (KRAS-G12D [6]): 0.00498 µM
- Dmax (KRAS-G12D [6]; A-427): 94.7%
- DC50 (KRAS-G12D [1]): 0.0137 µM
- Dmax (KRAS-G12D [1]): 97.5%
- pIC50 [3]: 7.56
- pIC50 [4]: 7.97

SMILES: C#Cc1c(F)ccc2cc(O)cc(-c3ncc4c(N5CC6CCC(C5)N6)nc(OCC(C)CN5CCN(CC6CCC7(CC6)CCN(C(=O)c6ccc(C)c(N8CCC(=O)NC8=O)c6)CC7)CC5)nc4c3F)c12 (centres unmarked) [Example 108, 1-(5-(9-((4-(3-((4-(3,8-diazabicyclo[3.2.1]octan-3-yl)-7-(8-ethynyl-7-fluoro-3-hydroxynaphthalen-1-yl)-8-fluoropyrido[4,3-d]pyrimidin-2-yl)oxy)-2-methylpropyl)piperazin-1-yl)methyl)-3-azaspiro[5.5]undecane-3-carbonyl)-2-methylphenyl)dihydropyrimidine-2,4(1H,3H)-dione]
- pIC50 [7]: 8.49
- pIC50 [3]: 8.34
- pIC50 [4]: 8.16

SMILES: C#Cc1c(F)ccc2cc(O)cc(-c3ccc4c(N5CC6CCC(C5)N6)nc(OC[C@H](C)CN5CCN(CC6CCC7(CC6)CCN(C(=O)c6ccc(OC)c(N8CCC(=O)NC8=O)c6)CC7)CC5)nc4c3F)c12 [Example 207, 1-(5-(9-((4-((R)-3-((4-(3,8-diazabicyclo[3.2.1]octan-3-yl)-7-(8-ethynyl-7-fluoro-3-hydroxynaphthalen-1-yl)-8-fluoroquinazolin-2-yl)oxy)-2-methylpropyl)piperazin-1-yl)methyl)-3-azaspiro[5.5]undecane-3-carbonyl)-2-methoxyphenyl)dihydropyrimidine-2,4(1H,3H)-dione]
- DC50 (KRAS-G12D [1]): 0.0151 µM
- Dmax (KRAS-G12D [1]): 99.7%
- pIC50 [2]: 7.95
- pIC50 [3]: 7.79
- pIC50 [5]: 7.46

SMILES: C#Cc1c(F)ccc2cc(O)cc(-c3ncc4c(N5CC6CCC(C5)N6)nc(OC[C@@H](C)CN5CCN(CC6CCC7(CC6)CCN(C(=O)c6ccc(OC)c(N8CCC(=O)NC8=O)c6)CC7)CC5)nc4c3F)c12 [Example 254, 1-(5-(9-((4-((S)-3-((4-(3,8-diazaspirobicyclo[3.2.1]octan-3-yl)-7-(8-ethynyl-7-fluoro-3-hydroxynaphthalen-1-yl)-8-fluoropyrido[4,3-d]pyrimidin-2-yl)oxy)-2-methylpropyl)piperazin-1-yl)methyl)-3-azaspiro[5.5]undecane-3-carbonyl)-2-methoxyphenyl)dihydropyrimidine-2,4(1H,3H)-dione]
- DC50 (KRAS-G12D [1]): 0.0325 µM
- Dmax (KRAS-G12D [1]): 83.4%
- pIC50 [8]: 7.13
- pIC50 [2]: 7.89
- pIC50 [3]: 8.11
- pIC50 [4]: 7.84
